Data: ChEMBL document CHEMBL1201862, “PubChem BioAssay data set” (2004)
The source made the active and inactive calls.

Assays:
[1] = molecular target: T1, Tyrosine-protein phosphatase non-receptor type 7 (Homo sapiens, UniProt P35236); test: HTS HePTP Fluorescent Assay using OMFP substrate for In Vitro dose response studies. [Related pubchem assays (depositor defined):AID1059, AID1077, AID1784, AID2068, AID2085, AID435032, AID521]; format: functional
T1 sequence (P35236 whole entry): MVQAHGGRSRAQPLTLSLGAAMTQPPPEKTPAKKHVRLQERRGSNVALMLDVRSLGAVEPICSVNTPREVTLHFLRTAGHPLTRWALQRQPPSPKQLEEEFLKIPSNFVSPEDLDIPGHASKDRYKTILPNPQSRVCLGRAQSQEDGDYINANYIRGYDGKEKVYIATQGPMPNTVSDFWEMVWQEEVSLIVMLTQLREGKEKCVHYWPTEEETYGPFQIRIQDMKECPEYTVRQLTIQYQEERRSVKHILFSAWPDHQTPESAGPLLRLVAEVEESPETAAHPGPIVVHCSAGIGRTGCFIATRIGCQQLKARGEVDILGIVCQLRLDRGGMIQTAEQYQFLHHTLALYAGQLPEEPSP

[2] = molecular target: T2, Apoptotic protease-activating factor 1 (Homo sapiens, UniProt O14727); test: activation of Apaf-1 mediated apoptosis – fluorescent, uHTS hits, dose response (AID 588554); format: functional
T2 sequence (O14727 whole entry): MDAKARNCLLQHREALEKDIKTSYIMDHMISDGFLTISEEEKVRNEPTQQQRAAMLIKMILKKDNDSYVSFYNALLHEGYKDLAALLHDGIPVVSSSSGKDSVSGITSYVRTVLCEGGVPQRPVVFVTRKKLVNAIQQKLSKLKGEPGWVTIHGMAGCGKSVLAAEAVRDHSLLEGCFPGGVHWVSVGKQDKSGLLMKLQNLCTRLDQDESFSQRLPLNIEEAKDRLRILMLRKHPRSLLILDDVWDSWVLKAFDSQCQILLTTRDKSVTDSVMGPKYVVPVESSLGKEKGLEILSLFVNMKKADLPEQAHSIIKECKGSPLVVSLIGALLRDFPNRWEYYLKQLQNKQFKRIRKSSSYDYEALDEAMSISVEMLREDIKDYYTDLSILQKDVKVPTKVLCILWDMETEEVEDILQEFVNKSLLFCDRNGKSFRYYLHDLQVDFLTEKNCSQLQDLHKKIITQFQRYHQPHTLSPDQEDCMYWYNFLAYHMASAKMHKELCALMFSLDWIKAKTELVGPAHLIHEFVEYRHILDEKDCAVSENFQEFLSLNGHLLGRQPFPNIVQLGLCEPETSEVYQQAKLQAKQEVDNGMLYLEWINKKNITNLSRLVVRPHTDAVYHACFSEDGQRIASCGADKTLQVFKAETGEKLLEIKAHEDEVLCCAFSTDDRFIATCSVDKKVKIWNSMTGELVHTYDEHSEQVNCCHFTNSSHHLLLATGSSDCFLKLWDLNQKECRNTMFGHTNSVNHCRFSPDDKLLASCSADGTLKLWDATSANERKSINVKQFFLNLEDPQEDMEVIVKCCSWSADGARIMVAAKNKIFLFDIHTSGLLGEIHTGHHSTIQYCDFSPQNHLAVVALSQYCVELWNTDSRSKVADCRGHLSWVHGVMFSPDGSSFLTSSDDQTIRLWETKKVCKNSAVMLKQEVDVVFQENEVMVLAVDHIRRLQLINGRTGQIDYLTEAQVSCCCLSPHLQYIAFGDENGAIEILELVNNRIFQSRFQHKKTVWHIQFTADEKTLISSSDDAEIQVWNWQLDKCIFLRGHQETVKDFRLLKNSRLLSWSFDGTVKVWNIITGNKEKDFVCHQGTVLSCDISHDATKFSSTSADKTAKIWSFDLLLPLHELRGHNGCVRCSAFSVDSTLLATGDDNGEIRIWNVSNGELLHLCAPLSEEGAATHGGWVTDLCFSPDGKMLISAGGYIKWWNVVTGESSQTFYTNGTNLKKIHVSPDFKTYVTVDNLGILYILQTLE

Vero = Vero cell cytotoxicity, cytotoxicity control for flavivirus capping enzyme inhibitors (AID 588742); format: functional; settings: Chlorocebus sabaeus
[3] = molecular target: T3, Sentrin-specific protease 6 (Homo sapiens, UniProt Q9GZR1); format: functional;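 further: Luminescence-based dose-response confirmatory assay of SENP6 inhibition, following up an ultra-high-throughput screen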
T3 sequence (Q9GZR1 whole entry): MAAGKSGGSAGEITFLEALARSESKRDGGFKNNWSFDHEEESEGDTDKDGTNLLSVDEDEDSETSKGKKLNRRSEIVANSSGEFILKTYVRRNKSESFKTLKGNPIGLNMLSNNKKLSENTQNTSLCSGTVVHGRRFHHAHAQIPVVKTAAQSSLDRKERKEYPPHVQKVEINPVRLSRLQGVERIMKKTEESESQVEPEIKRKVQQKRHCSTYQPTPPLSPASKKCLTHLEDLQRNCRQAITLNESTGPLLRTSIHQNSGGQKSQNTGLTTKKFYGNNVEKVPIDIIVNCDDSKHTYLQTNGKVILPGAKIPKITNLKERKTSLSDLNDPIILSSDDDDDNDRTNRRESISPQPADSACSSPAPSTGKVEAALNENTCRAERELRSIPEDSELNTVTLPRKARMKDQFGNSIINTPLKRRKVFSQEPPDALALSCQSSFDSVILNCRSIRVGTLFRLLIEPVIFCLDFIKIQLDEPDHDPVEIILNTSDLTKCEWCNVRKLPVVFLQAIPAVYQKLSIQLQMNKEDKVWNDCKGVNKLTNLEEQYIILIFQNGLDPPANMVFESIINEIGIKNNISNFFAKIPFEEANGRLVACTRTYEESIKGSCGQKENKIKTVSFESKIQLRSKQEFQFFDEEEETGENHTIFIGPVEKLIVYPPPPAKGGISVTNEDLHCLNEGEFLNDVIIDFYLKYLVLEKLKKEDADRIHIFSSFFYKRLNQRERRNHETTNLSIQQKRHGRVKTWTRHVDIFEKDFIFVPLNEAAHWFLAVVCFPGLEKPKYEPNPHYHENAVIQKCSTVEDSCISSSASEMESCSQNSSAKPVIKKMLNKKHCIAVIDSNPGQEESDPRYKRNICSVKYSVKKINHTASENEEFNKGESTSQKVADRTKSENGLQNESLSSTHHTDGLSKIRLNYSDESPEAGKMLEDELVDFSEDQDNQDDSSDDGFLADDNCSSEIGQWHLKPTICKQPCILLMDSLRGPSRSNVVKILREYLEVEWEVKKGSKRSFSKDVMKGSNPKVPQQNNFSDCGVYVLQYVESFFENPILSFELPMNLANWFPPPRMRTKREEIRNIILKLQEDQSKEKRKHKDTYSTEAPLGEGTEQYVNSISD

[4] = inhibitors of intracellular T. cruzi replication, confirmation, NIH3T3 host cells, beta-gal luminescence (AID 2044); format: functional, cell-based;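 further: intracellular parasites grown in NIH/3T3 mouse fibroblasts as host cells; luminescent beta-galactosidase reporter signal from transgenic T. cruzi replicating inside host cells; inhibitors lower the luminescence signal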
[5] = growth suppression of beta-catenin-knockout colon cells, dose response, cell-based, HCT116, human colon tumor (AID 1045); format: functional;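 further: HCT116 colon tumor cells with beta catenin knocked out; cells exposed to compound for 60 hours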

COc1ccc(/C=C2\SC(=S)N(CCC(=O)Nc3ccc(C(=O)O)cc3)C2=O)cc1OC
active: IC50 [1] 5.64 µM | EC50 [2] 9.36 µM

COc1ccc(Nc2ccc3c(c2)=NC2(CCCCC2)[N+]=3[O-])cc1
active: CC50 (Vero) 10.8 µM | IC50 [3] 6.28 µM | EC50 [4] 3.4 µM | EC50 [5] 1.89 µM
